The text below walks through data of patent publication US11304946B2, “2-hetarylpyrimidine-4-carboxamides as aryl hydrocarbon receptor antagonists” (Bayer Aktiengesellschaft, priority 2017, dated 2022).

The structures appear in SMILES notation.

For one assay, the target named is T1, Human AhR (Homo sapiens, UniProt P35869).
T1 construct: host or cells: U87 glioblastoma cells, stably transfected with DRE-driven firefly luciferase and constitutive renilla reporter constructs
T1 sequence (P35869 11-848): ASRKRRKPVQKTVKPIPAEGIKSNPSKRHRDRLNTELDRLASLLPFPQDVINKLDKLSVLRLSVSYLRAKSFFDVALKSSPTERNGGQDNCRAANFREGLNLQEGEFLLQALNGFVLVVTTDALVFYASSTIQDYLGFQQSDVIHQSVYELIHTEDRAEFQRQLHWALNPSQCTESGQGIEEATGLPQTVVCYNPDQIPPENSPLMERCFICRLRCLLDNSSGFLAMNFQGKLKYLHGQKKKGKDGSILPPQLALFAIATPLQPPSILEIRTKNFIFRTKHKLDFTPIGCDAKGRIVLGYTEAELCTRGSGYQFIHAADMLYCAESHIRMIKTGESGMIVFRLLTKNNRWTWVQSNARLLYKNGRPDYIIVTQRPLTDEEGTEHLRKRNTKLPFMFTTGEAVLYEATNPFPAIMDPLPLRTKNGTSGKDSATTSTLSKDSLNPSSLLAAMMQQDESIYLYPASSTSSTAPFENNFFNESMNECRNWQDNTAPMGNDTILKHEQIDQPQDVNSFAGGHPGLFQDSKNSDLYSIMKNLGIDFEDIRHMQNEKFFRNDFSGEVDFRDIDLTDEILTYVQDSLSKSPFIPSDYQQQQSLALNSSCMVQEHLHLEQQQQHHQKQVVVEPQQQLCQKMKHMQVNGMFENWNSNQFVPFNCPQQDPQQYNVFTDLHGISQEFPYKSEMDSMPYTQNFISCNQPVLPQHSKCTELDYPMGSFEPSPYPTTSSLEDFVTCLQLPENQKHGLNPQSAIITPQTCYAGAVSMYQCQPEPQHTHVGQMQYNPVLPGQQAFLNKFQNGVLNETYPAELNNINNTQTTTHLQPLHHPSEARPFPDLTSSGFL
Nature of the assay: Transactivation assay in human cell line (in vitro assay 1: antagonism). It is filed as cell-based. To be noted: U87 glioblastoma cells, AHR inducible (DRE) firefly luciferase reporter, 150 μM kynurenic acid, 20 hours. The essentials:
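U87 glioblastoma cells with endogenous AHR, stably carrying DRE-driven firefly luciferase and constitutive Renilla reporters, prestimulated with kynurenic acid before compound. Dual luciferase read-out; Renilla signal used to flag toxicity.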
Background: A reporter such as luciferase makes a cellular process visible.

The next assay addresses T2, Mouse AhR (Mus musculus, UniProt P30561).
T2 sequence (P30561 1-848): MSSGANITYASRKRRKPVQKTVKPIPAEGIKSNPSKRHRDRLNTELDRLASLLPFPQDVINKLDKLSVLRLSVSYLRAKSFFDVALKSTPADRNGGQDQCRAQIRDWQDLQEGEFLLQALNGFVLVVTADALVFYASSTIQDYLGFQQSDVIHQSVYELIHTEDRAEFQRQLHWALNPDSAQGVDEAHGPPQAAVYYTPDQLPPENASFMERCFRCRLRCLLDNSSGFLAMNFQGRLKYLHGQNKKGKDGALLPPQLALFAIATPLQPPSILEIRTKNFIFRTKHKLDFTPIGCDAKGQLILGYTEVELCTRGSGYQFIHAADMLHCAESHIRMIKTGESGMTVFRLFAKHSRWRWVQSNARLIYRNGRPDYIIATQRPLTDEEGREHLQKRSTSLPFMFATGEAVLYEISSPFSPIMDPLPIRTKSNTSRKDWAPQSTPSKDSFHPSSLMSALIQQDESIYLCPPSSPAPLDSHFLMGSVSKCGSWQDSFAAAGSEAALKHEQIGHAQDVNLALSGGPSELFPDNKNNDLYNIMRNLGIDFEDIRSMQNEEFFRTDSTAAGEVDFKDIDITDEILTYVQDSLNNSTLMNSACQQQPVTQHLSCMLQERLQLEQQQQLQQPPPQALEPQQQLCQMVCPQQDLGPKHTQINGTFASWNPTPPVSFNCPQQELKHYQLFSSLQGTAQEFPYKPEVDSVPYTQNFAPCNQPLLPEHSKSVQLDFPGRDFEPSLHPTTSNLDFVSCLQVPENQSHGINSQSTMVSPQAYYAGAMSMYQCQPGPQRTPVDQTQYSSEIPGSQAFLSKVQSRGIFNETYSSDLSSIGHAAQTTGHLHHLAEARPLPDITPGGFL
The assay can be described thus: Transactivation assay in mouse cell line (in vitro assay 2: antagonism). It counts as cell-based. To be noted: Hepa 1c1c7 cells, AHR inducible (DRE) firefly luciferase reporter, 200 μM kynurenic acid, 20 hours. The method, then: Transactivation Assay in Mouse Cell Line (In Vitro Assay 2)
Transactivation assay was carried out in Hepa 1c1c7 cells (ATCC #CRL-2026) endogenously expressing AHR. In addition the cells were stably transfected with an AHR inducible firefly luciferase reporter gene construct that carried AHR-binding sites (DRE) in its promoter. Kynurenic acid is an endogenous AHR activating ligand and was used to prestimulate test cells prior to testing the antagonistic properties of compounds.
In Vitro Assay 2: Antagonism in Mouse Cell Line
Firefly luciferase activity was determined by the SteadyGlo Luciferase Assay System (Promega, #E2550).

In the case of `C[C@@H](CO)NC(=O)c1cc(-c2ccc(OC(F)(F)F)cc2)nc(-c2cc[nH]n2)n1` [Example 37, N-[(2S)-1-hydroxypropan-2-yl]-2-(1H-pyrazol-3-yl)-6-[4-(trifluoromethoxy)phenyl]pyrimidine-4-carboxamide], the IC50 (commonly the midpoint of a concentration-inhibition curve) against Human AhR was determined as 71.7 nM; on Mouse AhR, 93 nM.

In the case of `Cc1ccc(-c2nc(C(=O)N[C@@H](C)CO)cc(-c3ccc(OC(F)(F)F)cc3)n2)cn1` [Example 39, N-[(2S)-1-hydroxypropan-2-yl]-2-(6-methylpyridin-3-yl)-6-[4-(trifluoromethoxy)phenyl]pyrimidine-4-carboxamide], the values for the IC50 against Human AhR and against Mouse AhR were 68.4 nM and 431 nM, respectively.

In the case of `COc1ccncc1-c1nc(C(=O)N[C@@H](C)CO)cc(-c2ccc(OC(F)(F)F)cc2)n1` [Example 40, N-[(2S)-1-hydroxypropan-2-yl]-2-(4-methoxypyridin-3-yl)-6-[4-(trifluoromethoxy)phenyl]pyrimidine-4-carboxamide], the IC50 on Human AhR was 4.24 nM; at Mouse AhR, 42.6 nM.

Take `C[C@@H](CO)NC(=O)c1cc(-c2ccc(OC(F)(F)F)cc2)nc(-c2cn[nH]c2)n1` [Example 41, N-[(2S)-1-hydroxypropan-2-yl]-2-(1H-pyrazol-4-yl)-6-[4-(trifluoromethoxy)phenyl]pyrimidine-4-carboxamide]: the IC50 against Human AhR is 97.6 nM; at Mouse AhR it was 55.8 nM.

In the case of `Cc1nn(C)cc1-c1nc(C(=O)N[C@@H](C)CO)cc(-c2ccc(OC(F)(F)F)cc2)n1` [Example 43, 2-(1,3-dimethyl-1H-pyrazol-4-yl)-N-[(2S)-1-hydroxypropan-2-yl]-6-[4-(trifluoromethoxy)phenyl]pyrimidine-4-carboxamide], the IC50 at Human AhR came out at 25.2 nM; at Mouse AhR, 271 nM.

Turning to `CC(C)(O)CNC(=O)c1cc(-c2ccc(Cl)cc2)nc(-c2ccc(C#N)s2)n1` [Example 47, 6-(4-chlorophenyl)-2-(5-cyanothiophen-2-yl)-N-(2-hydroxy-2-methylpropyl)pyrimidine-4-carboxamide], the IC50 was determined as 317 nM on Human AhR and 961 nM on Mouse AhR.

For the compound `Cn1nccc1-c1nc(C(=O)NCC(C)(C)O)cc(-c2ccc(Cl)cc2)n1` [Example 54, 6-(4-chlorophenyl)-N-(2-hydroxy-2-methylpropyl)-2-(1-methyl-1H-pyrazol-5-yl)pyrimidine-4-carboxamide], the IC50 worked out at 36.6 nM against Human AhR and 41.1 nM at Mouse AhR.

As to `CC(C)(O)CNC(=O)c1cc(-c2ccc(Cl)cc2)nc(-c2cncnc2)n1` [Example 55, 6-(4-chlorophenyl)-N-(2-hydroxy-2-methylpropyl)[2,5′-bipyrimidine]-4-carboxamide], the IC50 came out at 10.3 nM on Human AhR and 17.3 nM against Mouse AhR.

Consider `Cc1ccc(-c2nc(C(=O)NCC(C)(C)O)cc(-c3ccc(Cl)cc3)n2)cn1` [Example 60, 6-(4-chlorophenyl)-N-(2-hydroxy-2-methylpropyl)-2-(6-methylpyridin-3-yl)pyrimidine-4-carboxamide], for which the results for the IC50 against Human AhR and against Mouse AhR were 64.7 nM and 1420 nM, respectively.

For `CC(C)(O)CNC(=O)c1cc(-c2ccc(Cl)cc2)nc(-c2cnn(C3CC3)c2)n1` [Example 68, 6-(4-chlorophenyl)-2-(1-cyclopropyl-1H-pyrazol-4-yl)-N-(2-hydroxy-2-methylpropyl)pyrimidine-4-carboxamide], the IC50 was found to be 7240 nM against Human AhR and 9830 nM against Mouse AhR.

For the compound `C[C@@H](CO)NC(=O)c1cc(-c2ccc(Cl)cc2)nc(-c2ccc(C#N)s2)n1` [Example 70, 6-(4-chlorophenyl)-2-(5-cyanothiophen-2-yl)-N-[(2S)-1-hydroxypropan-2-yl]pyrimidine-4-carboxamide], the half-inhibitory concentration (IC50) at Human AhR came out at 94.2 nM; at Mouse AhR, 295 nM.

As for `Cc1cscc1-c1nc(C(=O)N[C@@H](C)CO)cc(-c2ccc(Cl)cc2)n1` [Example 71, 6-(4-chlorophenyl)-N-[(2S)-1-hydroxypropan-2-yl]-2-(4-methylthiophen-3-yl)pyrimidine-4-carboxamide], the IC50 at Human AhR stood at 3.23 nM; against Mouse AhR, 4.71 nM.

For `C[C@@H](CO)NC(=O)c1cc(-c2ccc(Cl)cc2)nc(-c2ccc(Cl)s2)n1` [Example 72, 6-(4-chlorophenyl)-2-(5-chlorothiophen-2-yl)-N-[(2S)-1-hydroxypropan-2-yl]pyrimidine-4-carboxamide], the IC50 at Human AhR was determined as 32.6 nM; on Mouse AhR it was 98.2 nM.

Take `Cc1ccsc1-c1nc(C(=O)N[C@@H](C)CO)cc(-c2ccc(Cl)cc2)n1` [Example 73, 6-(4-chlorophenyl)-N-[(2S)-1-hydroxypropan-2-yl]-2-(3-methylthiophen-2-yl)pyrimidine-4-carboxamide]: the IC50 is 16.3 nM at Human AhR and 28.8 nM against Mouse AhR.

As to `C[C@@H](CO)NC(=O)c1cc(-c2ccc(Cl)cc2)nc(-c2ccnn2C)n1` [Example 74, 6-(4-chlorophenyl)-N-[(2S)-1-hydroxypropan-2-yl]-2-(1-methyl-1H-pyrazol-5-yl)pyrimidine-4-carboxamide], the IC50 against Human AhR was determined as 33.6 nM; at Mouse AhR, 62.9 nM.

For `C[C@@H](CO)NC(=O)c1cc(-c2ccc(Cl)cc2)nc(-c2cncnc2)n1` [Example 75, 6-(4-chlorophenyl)-N-[(2S)-1-hydroxypropan-2-yl][2,5′-bipyrimidine]-4-carboxamide], the IC50 on Human AhR was 6.37 nM; against Mouse AhR, 21.2 nM.

For the compound `Cc1ccc(-c2nc(C(=O)N[C@@H](C)CO)cc(-c3ccc(Cl)cc3)n2)cn1` [Example 79, 6-(4-chlorophenyl)-N-[(2S)-1-hydroxypropan-2-yl]-2-(6-methylpyridin-3-yl)pyrimidine-4-carboxamide], the 50% inhibitory concentration (IC50) against Human AhR came to 108 nM; on Mouse AhR, 671 nM.

For `COc1ccncc1-c1nc(C(=O)N[C@@H](C)CO)cc(-c2ccc(Cl)cc2)n1` [Example 80, 6-(4-chlorophenyl)-N-[(2S)-1-hydroxypropan-2-yl]-2-(4-methoxypyridin-3-yl)pyrimidine-4-carboxamide], the IC50 against Human AhR was 2.64 nM; at Mouse AhR, 30.8 nM.

Take `Cc1nn(C)cc1-c1nc(C(=O)N[C@@H](C)CO)cc(-c2ccc(Cl)cc2)n1` [Example 83, 6-(4-chlorophenyl)-2-(1,3-dimethyl-1H-pyrazol-4-yl)-N-[(2S)-1-hydroxypropan-2-yl]pyrimidine-4-carboxamide]: the IC50 is 54.2 nM on Human AhR and 1510 nM against Mouse AhR.

`C[C@@H](CO)NC(=O)c1cc(-c2ccc(Cl)cc2)nc(-c2cnn(C3CC3)c2)n1` [Example 85, 6-(4-chlorophenyl)-2-(1-cyclopropyl-1H-pyrazol-4-yl)-N-[(2S)-1-hydroxypropan-2-yl]pyrimidine-4-carboxamide]: the IC50 at Human AhR turned out to be 1200 nM; against Mouse AhR, 7400 nM.
